Our source for the glass transition temperature values is the PolyMetriX glass transition set.

In turn, `*C(=O)Nc1c(C)cc(C)c(NC(=O)c2ccc3c(c2)C(=O)N(c2c(C)cc(C)c(N4C(=O)c5ccc(*)cc5C4=O)c2C)C3=O)c1C` (repeat unit) returned a glass transition temperature of 288.00 °C.

Molecule `*C(=O)Nc1ccc(-c2ccc(NC(=O)c3ccc4c(c3)C(=O)N(c3c(C)cc(C)c(N5C(=O)c6ccc(*)cc6C5=O)c3C)C4=O)cc2C)c(C)c1` (repeat unit) displayed a glass transition temperature of 259.00 °C.

As for `*CCOc1ccc(OC(=O)c2ccc(C(=O)Oc3ccc(O*)cc3)c(OCCCCC)c2)cc1` (repeat unit), the glass transition temperature was found to be 95.00 °C.

In turn, `*Nc1cc(NC(=O)c2cc(OCCCN(C)c3ccc(/N=N/c4ccc(S(C)(=O)=O)cc4)cc3)cc(C(*)=O)c2)cc(C(=O)OCCCN(C)c2ccc(/N=N/c3ccc(S(C)(=O)=O)cc3)cc2)c1` (repeat unit) registered a glass transition temperature of 168.00 °C.

With `*Nc1cc(NC(=O)c2cc(OCCN(C)c3ccc(C#N)cc3)cc(C(*)=O)c2)cc(C(=O)OCCN(C)c2ccc(C#N)cc2)c1` (repeat unit), the glass transition temperature worked out at 167.00 °C.

The molecule `*Nc1cc(NC(=O)c2ccc(-c3ccc(C(*)=O)cc3)cc2)cc(C(=O)OCCOc2ccc(/C=C/C(=O)c3ccccc3)cc2)c1` (repeat unit) had a glass transition temperature of 254.00 °C.

`*Nc1cc(NC(=O)c2ccc(C(*)=O)cc2)cc(C(=O)OCCOC(=O)/C=C/c2ccc(N(C)C)cc2)c1` (repeat unit) displayed a glass transition temperature of 198.00 °C.

Turning to `*Nc1cc(NC(=O)c2ccc3cc(C(*)=O)ccc3c2)cc(C(=O)OCCOc2ccc(/C=C/C(=O)c3ccccc3)cc2)c1` (repeat unit), the glass transition temperature came out at 247.00 °C.

In turn, `*Nc1ccc(NC(=O)c2ccc(NC(=O)CCCCCCCCC(=O)Nc3ccc(C(*)=O)cc3)cc2)cc1C(=O)OCCCCCCCCCCCC` (repeat unit) returned a glass transition temperature of 228.50 °C.

`*Nc1ccc(NC(=O)c2ccc(NC(=O)CCCCCCCCC(=O)Nc3ccc(C(*)=O)cc3)cc2)cc1C(=O)OCCCCCCCCCCCCCC` (repeat unit): the glass transition temperature came to 225.00 °C.

In the case of `*Nc1ccc(NC(=O)c2ccc(NC(=O)CCCCCCCCCCC(=O)Nc3ccc(C(*)=O)cc3)cc2)cc1C(=O)OCCCCCCCCCCCCCC` (repeat unit), the glass transition temperature amounted to 199.50 °C.

As to `*Nc1ccc(NC(=O)c2ccc(NC(=O)CCCCCCCCCCC(=O)Nc3ccc(C(*)=O)cc3)cc2)cc1C(=O)OCCCCCCCCCCCCCCCCCC` (repeat unit), the glass transition temperature turned out to be 196.50 °C.

Consider `*Nc1ccc(NC(=O)c2ccc(NC(=O)CCCCCCCCCCCCC(=O)Nc3ccc(C(*)=O)cc3)cc2)cc1C(=O)OCCCCCCCCCCCCCCCC` (repeat unit), for which the glass transition temperature was 250.00 °C.

In turn, `*Oc1ccc(/N=C/CCC/C=N/c2ccc(OC(=O)NC3CC(C)(C)CC(C)(CNC(*)=O)C3)cc2)cc1` (repeat unit) had a glass transition temperature of 66.00 °C.

In turn, `*Oc1ccc(C(=O)Nc2cc(C(c3ccc(C)c(NC(=O)c4ccc(OC(=O)c5cccc(C(*)=O)c5)cc4)c3)(C(F)(F)F)C(F)(F)F)ccc2C)cc1` (repeat unit) registered a glass transition temperature of 214.00 °C.

Regarding `*Oc1ccc(C(=O)Nc2cc(SCCC#N)c(NC(=O)c3ccc(*)cc3)cc2SCCC#N)cc1` (repeat unit), the glass transition temperature was 158.00 °C.

`*Oc1ccc(Oc2ccc(OC(=O)c3cc(OCCCCC)cc(C(*)=O)c3)cc2)cc1` (repeat unit) returned a glass transition temperature of 126.00 °C.

Molecule `*c1ccc(C(=O)Nc2ccc(-n3c(=O)c4cc5c(=O)n(*)c(=O)c5cc4c3=O)cc2C(=O)OCC)cc1` (repeat unit) displayed a glass transition temperature of 340.00 °C.

As for `*c1ccc(OC(=O)Nc2ccc(-c3ccc(NC(=O)Oc4ccc(-c5nc(-c6ccc(-c7nc(-c8ccc([N+](=O)[O-])cc8)c(-c8ccc([N+](=O)[O-])cc8)[nH]7)cc6)[nH]c5*)cc4)cc3OC)c(OC)c2)cc1` (repeat unit), the glass transition temperature was 223.00 °C.

Regarding `*c1ccc(OC(=O)Nc2ccc(-c3ccc(NC(=O)Oc4ccc(-c5nc(-c6ccc([N+](=O)[O-])cc6)[nH]c5*)cc4)cc3OC)c(OC)c2)cc1` (repeat unit), the glass transition temperature came out at 202.00 °C.
